Tests used:
Type in all cases: in vivo
[1] = Pharmacokinetics, monkey study: plasma AUCinf of metabolites after dosing Compound (4); details: male cynomolgus monkeys, single 2 hour intravenous infusion of 5 mg/kg Compound (4), metabolite AUCinf relative to Compound (4)
Description: (§1) The pharmacokinetics of Compounds (1)-(4) was determined in mice, rats, and monkeys.
Male cynomolgus monkeys (n=3) received a single intravenous infusion over a period of 2 hours at a dose of 5 mg/kg Compound (4) (2.5 mL/kg/hour). The dosing formulation was prepared prior to dose, with 1 mg/mL of Compound (4) in 14% sulphobutylether-β-cyclodextrin (SBECD) in deionized water (w/v). Blood samples were collected from each monkey at designated timepoints. Following collection, the samples were centrifuged (2500 rpm for 10 minutes at 4° C.) and the resulting plasma was recovered and stored frozen (−60° C.).
Bioanalysis of samples was performed for Compounds (1)-(4). The monkey plasma samples were extracted by protein precipitation and analyzed by UPLC-MSMS using a Waters UPLC and API 5000® triple quadrupole mass spectrometer (AB Sciex, Toronto, Canada) with an ACE® Excel® 2 C18 column (50 mm×3.0 mm, 2 μm particle size) or a Waters Acquity® UPLC BEH C18 column (50 mm×2.1 mm, 1.7 μm). Acquisition and chromatographic peak integration were performed using Analyst® Software, version 1.6.3. The standard curve regression and quantification of analytes in the samples was performed using Watson LIMS® Software, version 7.4.1 (Thermo Fisher Scientific, Philadelphia, USA) or the Analyst® Software.
Pharmacokinetic parameters were calculated from plasma concentration data for Compound (4) and its metabolites by non-compartmental methods using WinNonlin® Software, version 8.1 (Certara®, Inc). The area under the concentration time curve (AUCinf) was calculated for Compounds (1)-(4). The percent AUCinf for each of the metabolites was calculated as the ratio of the AUCinf of each respective metabolite divided by the AUCinf of Compound (4).

[2] = Pharmacokinetics, rat study: plasma AUCinf of metabolites after dosing Compound (4); details: male Sprague-Dawley rats, single intravenous bolus dose of 10 mg/kg Compound (4), metabolite AUCinf relative to Compound (4)
Description: as §1
Male Sprague-Dawley rats (n=3) received a single intravenous bolus dose of 10 mg/kg Compound (4). The dosing formulation was prepared by prior to dosing, with 5 mg/mL of Compound (4) in 14% sulphobutylether-β-cyclodextrin (SBECD) in deionized water (w/v). Blood samples were collected from each rat at designated timepoints. Following collection, the samples were centrifuged (2500 rpm for 10 minutes at approximately 4° C.) and the resulting plasma was recovered and stored frozen (−60° C.).
(§2) Bioanalysis of the samples was performed for Compounds (1)-(4). Rat plasma samples were extracted by protein precipitation and analyzed by UPLC-MSMS using a Waters UPLC and API 5000® triple quadrupole mass spectrometer (AB Sciex, Toronto, Canada) with a Waters Acquity® UPLC BEH C18 column (50 mm×2.1 mm, 1.7 μm particle size). Acquisition and chromatographic peak integration were performed using Analyst® 1.7 Software. The standard curve regression and quantification of analytes in the samples was performed using the Analyst® Software.
Pharmacokinetic parameters were calculated from the plasma concentration data for Compound (4) and the metabolites Compounds (1)-(3) by non-compartmental methods using WinNonlin® Software, version 8.1 (Certara®, Inc). The area under the concentration time curve (AUCinf) was calculated for Compounds (1)-(4). The percent AUCinf for the metabolites was calculated as the ratio of the AUCinf for each respective metabolite divided by the AUCinf for Compound (4).

[3] = Pharmacokinetics, mouse study: plasma AUCinf of metabolites after dosing Compound (4); details: female CD-1 mice, single intraperitoneal dose of 1 mg/mouse of Compound (4), metabolite AUCinf relative to Compound (4)
Description: as §1
Female CD-1 mice (n=9) received a single intraperitoneal dose of 1 mg/mouse of Compound (4). The dosing formulation was prepared prior to dose, with 2 mg/mL of Compound (4) in 4% DMSO and 96% PBS. Blood samples were collected from the mice at designated timepoints. Following collection, samples were centrifuged (2500 rpm for 10 minutes at 4° C.) and the resulting plasma was recovered and stored frozen (−60° C.).
as §2, with “of the plasma samples was” for “of the samples was”, “Compounds (1)-(4). Mouse plasma samples” for “Compounds (1)-(4). Rat plasma samples”
Pharmacokinetic parameters were calculated based on the plasma concentration data for Compound (4) and the metabolites Compound (1)-(3) by non-compartmental methods using WinNonlin® Software, version 8.1 (Certara®, Inc). The area under the concentration time curve (AUCinf) was calculated for Compounds (1)-(4). The percent AUCinf (% AUCinf) for each metabolite was calculated as the ratio of the AUCinf for each respective metabolite divided by the AUCinf for Compound (4).

CNc1cccc2c(S(=O)(=O)Nc3ccc(CN4CCOCC4)cc3)cccc12 [Compound (1), 5-(methylamino)-N-(4-(morpholinomethyl)phenyl)naphthalene-1-sulfonamide]
% AUCinf (100×AUCmetabolite/AUCCompound(4)) [1]: 64% | % AUCinf (100×AUCmetabolite/AUCCompound(4)) [2]: 9% | % AUCinf (100×AUCmetabolite/AUCCompound(4)) [3]: 31%

CNc1cccc2c(S(=O)(=O)Nc3ccc(CN4CCOCC4=O)cc3)cccc12 [Compound (2), 5-(methylamino)-N-(4-((3-oxomorpholino)methyl)phenyl)naphthalene-1-sulfonamide]
% AUCinf (100×AUCmetabolite/AUCCompound(4)) [1]: 132% | % AUCinf (100×AUCmetabolite/AUCCompound(4)) [2]: 48% | % AUCinf (100×AUCmetabolite/AUCCompound(4)) [3]: 10%

CN(C)c1cccc2c(S(=O)(=O)Nc3ccc(CN4CCOCC4=O)cc3)cccc12 [Compound (3), 5-(dimethylamino)-N-(4-((3-oxomorpholino)methyl)phenyl)naphthalene-1-sulfonamide]
% AUCinf (100×AUCmetabolite/AUCCompound(4)) [1]: 7% | % AUCinf (100×AUCmetabolite/AUCCompound(4)) [2]: 11% | % AUCinf (100×AUCmetabolite/AUCCompound(4)) [3]: 9%

Source: patent US12331024B2, “Substituted naphthyl P38alpha mitogen-activated protein kinase inhibitors” (GEN1E LIFESCIENCES INC., priority 2021, dated 2025)
